In PMC8468270, “In Vitro Heme Coordination of a Dye-Decolorizing Peroxidase—The Interplay of Key Amino Acids, pH, Buffer and Glycerol” (International Journal of Molecular Sciences, 2021):

Target: T1, KpDyP (WT KpDyP) (Klebsiella pneumoniae, UniProt A0A0W8ATM9)
T1 construct: gene yfeX; homodimer; ferric heme; distal D143, R232, L246, F248, proximal H215
T1 sequence (A0A0W8ATM9 1-299): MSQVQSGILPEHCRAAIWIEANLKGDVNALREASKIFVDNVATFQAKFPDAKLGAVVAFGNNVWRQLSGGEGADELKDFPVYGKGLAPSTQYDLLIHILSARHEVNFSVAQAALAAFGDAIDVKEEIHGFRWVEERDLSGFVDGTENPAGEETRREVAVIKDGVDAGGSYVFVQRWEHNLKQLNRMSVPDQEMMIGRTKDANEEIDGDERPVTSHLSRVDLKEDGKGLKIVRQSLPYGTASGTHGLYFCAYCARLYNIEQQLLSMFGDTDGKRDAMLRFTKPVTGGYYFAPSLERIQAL
Assay: X-band CW EPR of frozen solution
Format: binding
Details: glycine-KOH buffer 50 mM, pH 10.0, 10 K, no glycerol; heme iron distal ligand; seen only at low temperature, not at room temperature

With `NCC(=O)O` [glycine] the “X-band CW EPR of frozen solution” value was “glycine binding is also observed for WT and R232A KpDyP at low temperature”.
